Article PMC3971658 (The Journal of General Physiology, 2014)

Key:
[1] = biological target: human Cav2.1 (α1A-2) channel and GABABR (Homo sapiens, UniProt O75899+Q9UBS5); type: cell-based; settings: 200 nM
[2] = biological target: human Cav2.3c (α1E-c) channel and GABABR (Homo sapiens, UniProt O75899+Q9UBS5); type: cell-based; settings: 200 nM
[3] = tested on: human Cav2.3c channel and GABABR; type: cell-based
[4] = tested on: rat models of neuropathic pain; settings: in vivo; cited from earlier work
GABABR = settings: cited from earlier work

With Vc1.1 the IBa inhibition [1] was 0 (9) %, the IBa inhibition [2] was 25.5 ± 4.2 (9) % and the “pathway of inhibition (VD or VI)” value [3] was “solely mediated by a VI pathway”. The analgesic effect [4] was “can be used as an analgesic in rat models of neuropathic pain” and the “competition with baclofen for binding to receptors” value (GABABR) was “does not compete with baclofen for binding to receptors”.
